Reference: patent publication US11285160B2, “Pharmaceutical composition and method for treatment of non-alcoholic fatty liver disease” (MITSUBISHI TANABE PHARMA CORPORATION, priority 2016, dated 2022)

Key:
CDAA diet-loaded rats = experiment: Hepatic fibrosis development in NASH animal model (CDAA diet-loaded rat), repeated oral administration for 10 weeks; format: in vivo, F344 rats; conditions: for Sirius red positive areas (%) (mean ± S.E.): primary endpoint; for Fibrosis development score (mean ± S.E.): score 0-4 (Table 3), secondary endpoint
Source text: Some heads of F344 rats (5-week-old, body weight 67.5 to 87.5 g, purchased from Japan SLC, Inc.) were housed (for quarantine inspection and acclimatization) for 15 days while receiving a normal diet, and were then used as a test animal. The rats were divided into six treatment groups by stratified random allocation using body weight as a randomization factor (each 10 heads of the rats per group). The test compounds (that is, the compound (I) or eplerenone) were suspended into 0.5% aqueous carmellose sodium solution containing a vehicle (0.1% polyoxyethylene hydrogenated castor oil (HCO-60, manufactured by Nikko Chemicals Co., Ltd.)), and the resultant suspensions were used (10 mL/kg). The rats were loaded with a CDAA diet (choline deficient L-amino acid defined diet), and simultaneously with the loading, were received with a repeated oral administration of the above-mentioned compound (I) (1 mg/kg, 3 mg/kg, and 10 mg/kg) at once per day for 10 weeks (hereinafter, which is referred to as “Compound (I)-treated group”). Also, the rats that were loaded with the CDAA diet and were received with the administration of the above-mentioned vehicle (10 mL/kg) were assigned to “disease control group”, and also the rats that were loaded with the CSAA diet and were received with the administration of the above-mentioned vehicle (10 mL/kg) were assigned to “normal control group”. While, “positive control group” rats were loaded with the CDAA diet and were received with a repeated oral administration of eplerenone (100 mg/kg) at once per day for 10 weeks.
After the administration, the test tissues were sampled from lamella of the extracted liver, and the pathological specimens were constructed. Each effect of the respective test compound on NASH was examined using the Sirius red positive areas of the specimens as a primary endpoint. Also the fibrosis development scores of hepatic pathological specimens in each group were examined as the secondary endpoint.

[1] = tested on: UGT enzymes (Uridine diphosphate glucuronosyltransferase); experiment: Main metabolic pathway of compound (I); format: in vitro ADME; conditions: estimated
[2] = background statement; cited from earlier work
[3] = biological target: CYP3A4 (cytochrome P450 3A4) (Homo sapiens, UniProt P08684); conditions: Non-Patent documents 12 and 13; cited from earlier work
[4] = CDAA diet-loaded rats, 1 mg/kg oral once per day for 10 weeks
[5] = CDAA diet-loaded rats, 3 mg/kg oral once per day for 10 weeks
[6] = CDAA diet-loaded rats, 10 mg/kg oral once per day for 10 weeks
[7] = CDAA diet-loaded rats, 100 mg/kg oral once per day for 10 weeks

CYP3A4 (cytochrome P450 3A4), sequence (P08684 whole entry): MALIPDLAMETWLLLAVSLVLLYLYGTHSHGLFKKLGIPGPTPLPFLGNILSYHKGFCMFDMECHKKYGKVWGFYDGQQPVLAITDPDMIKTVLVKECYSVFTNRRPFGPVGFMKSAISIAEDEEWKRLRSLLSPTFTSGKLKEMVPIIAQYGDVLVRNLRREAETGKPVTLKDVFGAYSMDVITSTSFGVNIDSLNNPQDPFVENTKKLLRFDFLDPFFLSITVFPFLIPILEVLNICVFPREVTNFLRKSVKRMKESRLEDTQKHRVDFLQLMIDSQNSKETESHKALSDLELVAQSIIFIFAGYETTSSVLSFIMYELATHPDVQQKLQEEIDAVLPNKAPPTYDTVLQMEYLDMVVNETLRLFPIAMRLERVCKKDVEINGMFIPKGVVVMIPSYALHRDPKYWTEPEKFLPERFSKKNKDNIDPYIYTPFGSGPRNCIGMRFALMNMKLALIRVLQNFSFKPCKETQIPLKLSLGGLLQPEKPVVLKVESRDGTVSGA

| Structure (SMILES) | Sirius red positive areas as compared with disease control group (CDAA diet-loaded rats; 1 mg/kg, 3 mg/kg and 10 mg/kg-treated groups, all) | Fibrosis development scores as compared with disease control group (CDAA diet-loaded rats; 3 mg/kg-treated group and 10 mg/kg-treated group) | Sirius red positive areas (%) (mean ± S.E.) (CDAA diet-loaded rats; [4]) | Fibrosis development score (mean ± S.E.) (CDAA diet-loaded rats; [4]) | Sirius red positive areas (%) (mean ± S.E.) (CDAA diet-loaded rats; [5]) | Fibrosis development score (mean ± S.E.) (CDAA diet-loaded rats; [5]) | Sirius red positive areas (%) (mean ± S.E.) (CDAA diet-loaded rats; [6]) | Fibrosis development score (mean ± S.E.) (CDAA diet-loaded rats; [6]) | Progression of fibrosis development of liver (CDAA diet-loaded rats; CDAA diet-loaded rats, overall conclusion) | Sirius red positive area value at the lowest dose in comparison with eplerenone at a higher dose (CDAA diet-loaded rats; compound (I) lowest dose (1 mg/kg) vs eplerenone 100 mg/kg) | Main metabolic pathway [1] | Half-life in blood [2] | Metabolizing enzyme [3] | Fibrosis development scores as compared with disease control group (CDAA diet-loaded rats; 100 mg/kg, positive control group) | Sirius red positive areas (%) (mean ± S.E.) (CDAA diet-loaded rats; [7]) | Fibrosis development score (mean ± S.E.) (CDAA diet-loaded rats; [7]) |
| --- | --- | --- | --- | --- | --- | --- | --- | --- | --- | --- | --- | --- | --- | --- | --- | --- |
| CC1(C)Oc2cc(NS(C)(=O)=O)ccc2N(c2ccc(F)cc2)C1=O [Compound (I)] | significantly lower | significantly lower value | 4.0 ± 0.3 | 3.0 ± 0.0 | 3.6 ± 0.4 | 2.7 ± 0.2 | 1.8 ± 0.2 | 2.2 ± 0.1 | significantly inhibit | significantly lower area value | glucuronide conjugation by UGT enzymes |  |  |  |  |  |
| COC(=O)[C@@H]1CC2=CC(=O)CC[C@]2(C)[C@@]23O[C@@H]2C[C@@]2(C)[C@@H](CC[C@@]24CCC(=O)O4)[C@H]13 [Eplerenone, eplerenone, reference compound] |  |  |  |  |  |  |  |  |  |  |  | short half-life | metabolized mainly by CYP3A4 | not significantly different | 2.8 ± 0.2 | 3.0 ± 0.0 |
